The nature of data set [1]: DVS (dynamic vapor sorption) hygroscopicity test. It counts as physicochemical. From the text:
According to the description of hygroscopicity characteristics and the definitions of hygroscopic weight gains in “General Rule 9103, Guidelines for Hygroscopicity” in the Chinese Pharmacopoeia, Volume IV, 2015 Edition, • deliquescent: sufficient water is absorbed to form a liquid; • extremely hygroscopic: the hygroscopic weight gain is not less than 15%; • hygroscopic: the hygroscopic weight gain is less than 15% but not less than 2%; • slightly hygroscopic: the hygroscopic weight gain is less than 2% but not less than 0.2%; • nonhygroscopic or practically nonhygroscopic: the hygroscopic weight gain is less than 0.2%.
TGA refers to thermogravimetric analysis: The analysis was performed using a METTLER TOLEDO TGA 2 thermogravimetric analyzer, with a temperature ramp rate of 10° C./min, specific temperature ranges shown in corresponding patterns (mostly 30-350° C.), and a nitrogen purge speed of 50 mL/min. DVS refers to dynamic vapor sorption: The analysis was performed using SMS DVS Advantage; at 25° C., the humidity was changed as follows: 50%-95%-0%-95%-50%, in steps of 10% (5% for the last step) (specific humidity ranges are shown in corresponding patterns, and those listed here were used in most cases); the criterion was dm/dt being not greater than 0.002%.

Data set [2] in a line: Long-term/accelerated stability study (sealed in aluminum foil bags, 25° C./60% RH and 40° C./75% RH). In kind it is physicochemical. The note with it: for long-term/accelerated stability (conclusion): storage under long-term accelerated conditions for 6 months.
Data set [3] deals with db/db mice (idiopathic type II diabetes model mice). Put plainly: Efficacy test in db/db mouse model with diabetic nephropathy. In kind it is in vivo. Particulars: for mALB compared to the model control group / urine albumin-to-creatinine ratio (UACR) compared to the model control group / urine amount compared to the model control group: after 4 weeks of administration, in words; for UACR / Urine creatinine / Urine weight / mALB: db/db mice, 15 mg/kg i.g. once daily, Mean±SEM. From the text: Test Example 2: Efficacy Test in db/db Mouse Model with Diabetic Nephropathy
Thirty db/db mice (idiopathic type II diabetes model mice) were selected and divided into a model control group, a positive control group, and a treatment group, and 10 db/m mice were selected as a control group.
The mice were given the compounds by oral gavage (i.g) once daily over 4 consecutive weeks. The administration information is shown in detail in Table 2.
Urine albumin was used as a main measure. The data obtained were analyzed statistically using EXCEL and IBM SPSS Statistics 22.0.
All metrology data are expressed as Mean±SEM s. The parameters before and after administration were plotted for the different groups of animals using the software Graph Pad Prism 8. Data were analyzed using the statistical software SPSS 22.0. A Levene's test of homogeneity of variance was performed on the parameters. When the variance was homogenous (P≥0.05), the Dunnett's & LSD method from the one-way analysis of variance (ANOVA) was used to compare the differences between the groups. When the variance was not homogenous (P<0.05), the Mann-Whitney U test (the M-W method) from the Kruskal-Wallis H test (the K-W method) was used to compare the differences between the groups. For animal survival, the log-rank test from the product-limit method (the K-M method) was used to compare the differences between the groups.

A short description of data set [4]: Influencing factor stability study (open containers; light, high temperature, high humidity; 30 days). It counts as physicochemical.
Setting [5] is: 25° C.-60% RH, sealed aluminum foil bag, 1 month.
The mark [6] stands for this setting: 25° C.-60% RH, sealed aluminum foil bag, 2 months.
Where [7] appears, read: 25° C.-60% RH, sealed aluminum foil bag, 3 months.
Setting [8] is: 25° C.-60% RH, sealed aluminum foil bag, 6 months.
[9] abbreviates: 40° C.-75% RH, sealed aluminum foil bag, 1 month.
The mark [10] stands for this setting: 40° C.-75% RH, sealed aluminum foil bag, 2 months.
The mark [11] stands for this setting: 40° C.-75% RH, sealed aluminum foil bag, 3 months.
Where [12] appears, read: 40° C.-75% RH, sealed aluminum foil bag, 6 months.
[13] abbreviates: 4 weeks, ** P<0.01 vs model control group.
Setting [14] is: open container, 40° C., 1 month.
Setting [15] is: open container, 40° C., 14 days.
Setting [16] is: open container, 60° C., 1 month.
[17] abbreviates: open container, 60° C., 14 days.
Where [18] appears, read: open container, 75% RH, 1 month.
Where [19] appears, read: open container, 75% RH, 14 days.
The mark [20] stands for this setting: open container, 92.5% RH, 1 month.
The mark [21] stands for this setting: open container, 92.5% RH, 7 days.
The mark [22] stands for this setting: open container, 92.5% RH, 14 days.
Where [23] appears, read: open container, light exposure (4500 Lux), 1 month.
Where [24] appears, read: open container, light exposure (4500 Lux), 7 days.
[25] abbreviates: open container, light exposure (4500 Lux), 14 days.

Regarding `Cl.[2H]C([2H])([2H])Oc1cc(C#N)ccc1[C@@H]1C(C(N)=O)=C(C)Nc2c(C)cnc(OCC)c21` [crystal form I of hydrochloride], the hygroscopic weight gain entry in data set [1] (accelerated experimental conditions, 70% RH) was “about 13.7%”; in data set [1] (extreme conditions, 90% RH), “about 37.5%”; in data set [1] (normal storage conditions, 25° C. and 60% RH), “about 3.6%”. Also, the “crystal form re-identified after the DVS test” value in data set [1] (after DVS test) is recorded as “did not change”. In addition, the “Purity (%)” value in data set [2] (0 days (initial)) amounted to 99.8%; in data set [2] (setting [5]), 99.3%; in data set [2] (setting [6]), 99.3%; in data set [2] (setting [7]), 99.3%; in data set [2] (setting [8]) it was 99.3%; in data set [2] (setting [9]), 99.2%. Further, the “Purity (%)” value in data set [2] (setting [10]) is 98.9%; in data set [2] (setting [11]), 98.8%; in data set [2] (setting [12]), 98.8%. Also, the Crystal form result in data set [2] (setting [5]), in data set [2] (setting [6]), in data set [2] (setting [7]), in data set [2] (setting [8]), in data set [2] (setting [9]) and in data set [2] (setting [10]) was “No change” each time. In addition, the Crystal form result in data set [2] (setting [11]) and in data set [2] (setting [12]) was “No change” throughout. Also, the “long-term/accelerated stability (conclusion)” value in data set [2] was “good physical and chemical stability”.
Take `CCOc1ncc(C)c2c1[C@H](c1ccc(C#N)cc1OC)C(C(N)=O)=C(C)N2` [Finerenone, reference compound]: in data set [3], the “mALB compared to the model control group” value was “tended to be lower”, the “urine albumin-to-creatinine ratio (UACR) compared to the model control group” value was “decreased somewhat but is not significantly different” and the “urine amount compared to the model control group” value is on record as “tended to be lower”. In data set [3] (0 weeks), this compound had a UACR of 5538.19 ± 342.61 µg/mg, a Urine creatinine of 0.37 ± 0.02 μmol/24 h, a Urine weight of 2.86 ± 0.17 mL and a mALB of 226.68 ± 13.90 μg/24 h. In data set [3] (4 weeks), the Urine creatinine is recorded as 2.11 ± 0.44 μmol/24 h, the Urine weight came out at 11.96 ± 2.89 mL and the mALB was 1,013.76 ± 245.40 μg/24 h. The compound also showed a UACR in data set [3] (setting [13]) of 4294.14 ± 464.95 µg/mg.
In the case of `[2H]C([2H])([2H])Oc1cc(C#N)ccc1[C@@H]1C(C(N)=O)=C(C)Nc2c(C)cnc(OCC)c21` [Compound 1], in data set [3], the “mALB compared to the model control group” value is on record as “tended to be lower”, the “urine albumin-to-creatinine ratio (UACR) compared to the model control group” value is on record as “statistically significantly smaller” and the “urine amount compared to the model control group” value was “tended to be lower”. In data set [3] (0 weeks), this compound showed a UACR of 5039.91 ± 334.27 µg/mg, a Urine creatinine of 0.40 ± 0.01 μmol/24 h, a Urine weight of 2.72 ± 0.14 mL and a mALB of 224.72 ± 13.19 μg/24 h. In data set [3] (4 weeks), the Urine creatinine is on record as 2.23 ± 0.39 μmol/24 h, the Urine weight was found to be 10.41 ± 2.29 mL and the mALB amounted to 870.27 ± 189.40 μg/24 h. The UACR in data set [3] (setting [13]) is listed as 3301.13 ± 330.31** μg/mg.
Take `O=C(O)/C=C\C(=O)O.[2H]C([2H])([2H])Oc1cc(C#N)ccc1[C@@H]1C(C(N)=O)=C(C)Nc2c(C)cnc(OCC)c21` [crystal form α of maleate]: the Crystal form result in data set [4] (0 days) is “Crystal form α of maleate”; in data set [4] (setting [14]) it was “No change”; in data set [4] (open container, 40° C., 7 days) it was “No change”; in data set [4] (setting [15]), “No change”; in data set [4] (setting [16]), “No change”; in data set [4] (open container, 60° C., 7 days), “No change”. In addition, the Crystal form result in data set [4] (setting [17]) is recorded as “No change”; in data set [4] (setting [18]) it was “No change”; in data set [4] (open container, 75% RH, 7 days), “No change”; in data set [4] (setting [19]) it was “No change”; in data set [4] (setting [20]), “No change”; in data set [4] (setting [21]) it was “No change”. The Crystal form entry in data set [4] (setting [22]), in data set [4] (setting [23]), in data set [4] (setting [24]), in data set [4] (setting [25]), in data set [2] (setting [5]) and in data set [2] (setting [6]) was “No change” throughout. The Crystal form result in data set [2] (setting [7]), in data set [2] (setting [8]), in data set [2] (setting [9]), in data set [2] (setting [10]), in data set [2] (setting [11]) and in data set [2] (setting [12]) was “No change” throughout. For the same compound, the Purity in data set [4] (0 days) is listed as 99.6%; in data set [4] (setting [14]), 97.4%; in data set [4] (open container, 40° C., 7 days) it was 98.9%; in data set [4] (setting [15]) it was 98.4%; in data set [4] (setting [16]) it was 92.2%; in data set [4] (open container, 60° C., 7 days) it was 98.6%. Further, the Purity turned out to be 97.0% in data set [4] (setting [17]); 99.8% in data set [4] (setting [18]); 99.8% in data set [4] (open container, 75% RH, 7 days); 99.8% in data set [4] (setting [19]); 99.8% in data set [4] (setting [20]); 99.8% in data set [4] (setting [21]). In addition, the Purity in data set [4] (setting [22]) is on record as 99.8%; in data set [4] (setting [23]), 98.2%; in data set [4] (setting [24]) it was 99.2%; in data set [4] (setting [25]), 98.7%. In addition, in data set [4] (at a high temperature), the “stability in the influencing factor experiments (conclusion)” value was “slightly degraded”. Besides, the “Purity (%)” value in data set [2] (0 days (initial)) was 99.6%; in data set [2] (setting [5]) it was 99.8%; in data set [2] (setting [6]) it was 99.8%; in data set [2] (setting [7]), 99.8%; in data set [2] (setting [8]), 99.6%; in data set [2] (setting [9]), 99.6%. Moreover, the “Purity (%)” value came to 99.5% in data set [2] (setting [10]), 99.3% in data set [2] (setting [11]) and 98.8% in data set [2] (setting [12]). Besides, in data set [2], the “long-term/accelerated stability (conclusion)” value is “good physical and chemical stability”.
